Read-outs that look alike come from different tables or passages of the source. Non-standard residues stand in square brackets, D forms with d. Residues, ends and D or L forms follow the SMILES beside them. Dmt = Cc1cc(O)cc(C)c1C[C@H](N)C(=O)O; Orn = NCCC[C@H](N)C(=O)O
Test system: A549 cells
Type: cell-based, human
Conditions: 24 h
Protocol: Cells were seeded in 96‐well cell culture plates (8000/well) and allowed to grow for 48 h. After washing with PBS, cells were fixed with 50% trichloroacetic acid and stained with SRB for 20 min. Excess SRB was removed, and cells were washed with 1% acetic acid. SRB extraction was done using 100 mM Tris‐base, and absorbance at 510 nm was determined using an Infinite M1000 plate reader (Tecan, Männedorf, Switzerland).
Fig. 7 PSD‐interacting peptides bind to PSD, inhibiting its activity, and when cell‐penetrating and mitochondria‐ or nucleus‐targeted, inhibit cell proliferation. […] (B) Inhibition of PSD activity by the 2F3 (●) or 1C11 (○) peptide. PSD activity was measured using the DSB‐3 method. (C‐E) Cell proliferation inhibition following incubation of A549 cells with the indicated mitochondria‐ or nucleus‐targeted peptides for 24 h in a serum‐free medium, and cell proliferation was assayed using the SRB method. Results are the means ± SEM (n = 3). (F) A549 cells were incubated for 90 min with 5 µM of the mitochondria‐ or nucleus‐targeted FITC‐labelled peptides, immunostained with anti‐SMAC antibodies and with DAPI and visualized by confocal microscope for subcellular localization. (a) and (b) present higher magnification, white arrows point to possible nuclear localization of the peptide, and blue arrows to its colocalization with mitochondria marker (n = 3). Scale bars represent 20, 10 µm as indicated.
Table S4. Effects of peptide identified as interacting with PSD or their interaction with SMAC/Diablo is prevented in the presence of PSD on A549 lung cancer cell growth A549 cells were seeded in 96-well plate (7000 cells/well). After 24 h cells were incubated without or with the indicated peptide concentration for 24 h in a serum-free medium. Then, cells were washed with PBS, and analyzed for cell growth using the SRB method. Results are the mean ± SD (n=3). Peptide sequence, its identification manner, based on interacting with PSD or their interaction with SMAC/Diablo is prevented in the presence of PSD are shown. In addition, the peptides are presented with the cell penetrating peptide targeting to the mitochondria or the nucleus. The results are presented as the concentration required for 50% inhibition (IC50).
No Peptide spot and Protein/Function Peptide and Cellular IC50 […]
ALSTSSPIPSVPQSQ transcriptional coactivator 2 Mitochondria (A) […]
AQPQTGSGAS truncated poly Q, transcriptional H-(D-Arg)–Dmt–Orn–Phe- 2F3 >100 Interacting with PSD coactivator for NOTCH proteins, Mitochondria promotes proliferative signaling R-{D-Arg}-RK- 2F3 28.9±5.2 during neurogenesis (Nucleus). Nucleus […]
PNQSSRAFQGTDHS transcriptional coactivator 2 Mitochondria
SDLAFDFLSQQ truncated poly Q, A transcriptional D-Arg–Dmt–Orn–Phe-2I8 66.8±4.7 Identified by PSD coactivator for NOTCH proteins, Mitochondria preventing SMAC promotes proliferative signaling R-{D-Arg}-RK-2I8 >100 interaction with it during neurogenesis (Nucleus). Nucleus […]
ALLTSGTSDPRARV protease promotes cell death either Mitochondria […]
TYGTPSLWARL by direct binding to IAPs proteins D-Arg–Dmt–Orn–Phe -1C11 89.3±5.49 Interacting with PSD leading to increased caspase Mitochondria activity or caspase-independent and serine protease activity-dependent R-{D-Arg}-RK- 1C11 66.5±3.9 mechanism. (Mitochondrion Nucleus intermembrane space). 1C11- R-{D-Arg}-RK 30.0±3.8 […]
ELYRMSTYSTFPAG Acts as an E3 ubiquitin-protein Mitochondria
VPVSERSLARA ligase, regulator of NF-kappa-B 1E14- D-Arg–Dmt–Orn–Phe >100 Identified by PSD signaling, apoptosis, cell Mitochondria preventing SMAC proliferation, cell invasion and R-{D-Arg}-RK-1E14 >100 interaction with it metastasis, modulates inflammatory Nucleus signaling, (Cytosol, nucleus and […]

| SMILES | IC50 [µM] | IC50 (A549 cells, serum‐free medium, SRB, read-out: IC50, cell proliferation inhibition) [µM] |
| --- | --- | --- |
| CSCC[C@H](NC(=O)[C@H](CCCNC(=N)N)NC(=O)[C@H](Cc1ccc(O)cc1)NC(=O)[C@H](CC(C)C)NC(=O)[C@H](CCC(=O)O)NC(=O)[C@H](Cc1ccccc1)NC(=O)[C@H](CCCN)NC(=O)[C@H](Cc1c(C)cc(O)cc1C)NC(=O)[C@H](N)CCCNC(=N)N)C(=O)N[C@@H](CO)C(=O)N[C@H](C(=O)N[C@@H](Cc1ccc(O)cc1)C(=O)N[C@@H](CO)C(=O)N[C@H](C(=O)N[C@@H](Cc1ccccc1)C(=O)N1CCC[C@H]1C(=O)N[C@@H](C)C(=O)NCC(=O)N[C@H](C(=O)N1CCC[C@H]1C(=O)N[C@H](C(=O)N[C@@H](CO)C(=O)N[C@@H](CCC(=O)O)C(=O)N[C@@H](CCCNC(=N)N)C(=O)N[C@@H](CO)C(=O)N[C@@H](CC(C)C)C(=O)N[C@@H](C)C(=O)N[C@@H](CCCNC(=N)N)C(=O)N[C@@H](C)C(=O)O)C(C)C)C(C)C)[C@@H](C)O)[C@@H](C)O [D-Arg–Dmt–Orn–Phe-1E14] (H-[dR][Dmt][Orn]FELYRMSTYSTFPAGVPVSERSLARA-OH; N-terminus and C-terminus assumed) | > 100 |  |
| CC(C)C[C@H](NC(=O)[C@H](CC(=O)O)NC(=O)[C@H](CO)NC(=O)[C@H](CO)NC(=O)[C@H](Cc1c[nH]cn1)NC(=O)[C@H](CC(=O)O)NC(=O)[C@@H](NC(=O)CNC(=O)[C@H](CCC(N)=O)NC(=O)[C@H](Cc1ccccc1)NC(=O)[C@H](C)NC(=O)[C@H](CCCNC(=N)N)NC(=O)[C@H](CO)NC(=O)[C@H](CO)NC(=O)[C@H](CCC(N)=O)NC(=O)[C@H](CC(N)=O)NC(=O)[C@@H]1CCCN1C(=O)[C@H](CCCCN)NC(=O)[C@H](CCCNC(=N)N)NC(=O)[C@@H](CCCNC(=N)N)NC(=O)[C@@H](N)CCCNC(=N)N)[C@@H](C)O)C(=O)N[C@@H](C)C(=O)N[C@@H](Cc1ccccc1)C(=O)N[C@@H](CC(=O)O)C(=O)N[C@@H](Cc1ccccc1)C(=O)N[C@@H](CC(C)C)C(=O)N[C@@H](CO)C(=O)N[C@@H](CCC(N)=O)C(=O)N[C@@H](CCC(N)=O)C(=O)O [R-{D-Arg}-RK-2I8] (H-R[dR]RKPNQSSRAFQGTDHSSDLAFDFLSQQ-OH; N-terminus and C-terminus assumed) | > 100 |  |
| CC(C)C[C@H](NC(=O)[C@H](CC(=O)O)NC(=O)[C@H](CO)NC(=O)[C@H](CO)NC(=O)[C@H](Cc1c[nH]cn1)NC(=O)[C@H](CC(=O)O)NC(=O)[C@@H](NC(=O)CNC(=O)[C@H](CCC(N)=O)NC(=O)[C@H](Cc1ccccc1)NC(=O)[C@H](C)NC(=O)[C@H](CCCNC(=N)N)NC(=O)[C@H](CO)NC(=O)[C@H](CO)NC(=O)[C@H](CCC(N)=O)NC(=O)[C@H](CC(N)=O)NC(=O)[C@@H]1CCCN1)[C@@H](C)O)C(=O)N[C@@H](C)C(=O)N[C@@H](Cc1ccccc1)C(=O)N[C@@H](CC(=O)O)C(=O)N[C@@H](Cc1ccccc1)C(=O)N[C@@H](CC(C)C)C(=O)N[C@@H](CO)C(=O)N[C@@H](CCC(N)=O)C(=O)N[C@@H](CCC(N)=O)C(=O)N[C@@H](CCCNC(=N)N)C(=O)N[C@H](CCCNC(=N)N)C(=O)N[C@@H](CCCNC(=N)N)C(=O)N[C@@H](CCCCN)C(=O)O [2I8-R-{D-Arg}-RK] (H-PNQSSRAFQGTDHSSDLAFDFLSQQR[dR]RK-OH; N-terminus and C-terminus assumed) | 19.7 |  |
| CC[C@H](C)[C@H](NC(=O)[C@@H]1CCCN1C(=O)[C@H](CO)NC(=O)[C@H](CO)NC(=O)[C@@H](NC(=O)[C@H](CO)NC(=O)[C@H](CC(C)C)NC(=O)[C@H](C)NC(=O)[C@H](Cc1ccccc1)NC(=O)[C@H](CCCN)NC(=O)[C@H](Cc1c(C)cc(O)cc1C)NC(=O)[C@H](N)CCCNC(=N)N)[C@@H](C)O)C(=O)N1CCC[C@H]1C(=O)N[C@@H](CO)C(=O)N[C@H](C(=O)N1CCC[C@H]1C(=O)N[C@@H](CCC(N)=O)C(=O)N[C@@H](CO)C(=O)N[C@@H](CCC(N)=O)C(=O)N[C@@H](C)C(=O)N[C@@H](CCC(N)=O)C(=O)N1CCC[C@H]1C(=O)N[C@@H](CCC(N)=O)C(=O)N[C@H](C(=O)NCC(=O)N[C@@H](CO)C(=O)NCC(=O)N[C@@H](C)C(=O)N[C@@H](CO)C(=O)O)[C@@H](C)O)C(C)C [H-(D-Arg)–Dmt–Orn–Phe- 2F3] (H-[dR][Dmt][Orn]FALSTSSPIPSVPQSQAQPQTGSGAS-OH; C-terminus assumed) | > 100 |  |
| Cc1cc(O)cc(C)c1C[C@H](NC(=O)[C@H](N)CCCNC(=N)N)C(=O)N[C@@H](CCCN)C(=O)N[C@@H](Cc1ccccc1)C(=O)N[C@@H](C)C(=O)N[C@@H](CC(C)C)C(=O)N[C@@H](CC(C)C)C(=O)N[C@H](C(=O)N[C@@H](CO)C(=O)NCC(=O)N[C@H](C(=O)N[C@@H](CO)C(=O)N[C@@H](CC(=O)O)C(=O)N1CCC[C@H]1C(=O)N[C@@H](CCCNC(=N)N)C(=O)N[C@@H](C)C(=O)N[C@@H](CCCNC(=N)N)C(=O)N[C@H](C(=O)N[C@H](C(=O)N[C@@H](Cc1ccc(O)cc1)C(=O)NCC(=O)N[C@H](C(=O)N1CCC[C@H]1C(=O)N[C@@H](CO)C(=O)N[C@@H](CC(C)C)C(=O)N[C@@H](Cc1c[nH]c2ccccc12)C(=O)N[C@@H](C)C(=O)N[C@@H](CCCNC(=N)N)C(=O)N[C@@H](CC(C)C)C(=O)O)[C@@H](C)O)[C@@H](C)O)C(C)C)[C@@H](C)O)[C@@H](C)O [D-Arg–Dmt–Orn–Phe -1C11] (H-[dR][Dmt][Orn]FALLTSGTSDPRARVTYGTPSLWARL-OH; N-terminus and C-terminus assumed) | 89.3 ± 5.49 |  |

Continued, values first:

| IC50 [µM] | IC50 (A549 cells, serum‐free medium, SRB, read-out: IC50, cell proliferation inhibition) [µM] | SMILES |
| --- | --- | --- |
| 66.5 ± 3.9 |  | CC(C)C[C@H](NC(=O)[C@H](CCCNC(=N)N)NC(=O)[C@H](C)NC(=O)[C@H](Cc1c[nH]c2ccccc12)NC(=O)[C@H](CC(C)C)NC(=O)[C@H](CO)NC(=O)[C@@H]1CCCN1C(=O)[C@@H](NC(=O)CNC(=O)[C@H](Cc1ccc(O)cc1)NC(=O)[C@@H](NC(=O)[C@@H](NC(=O)[C@H](CCCNC(=N)N)NC(=O)[C@H](C)NC(=O)[C@H](CCCNC(=N)N)NC(=O)[C@@H]1CCCN1C(=O)[C@H](CC(=O)O)NC(=O)[C@H](CO)NC(=O)[C@@H](NC(=O)CNC(=O)[C@H](CO)NC(=O)[C@@H](NC(=O)[C@H](CC(C)C)NC(=O)[C@H](CC(C)C)NC(=O)[C@H](C)NC(=O)[C@H](CCCCN)NC(=O)[C@H](CCCNC(=N)N)NC(=O)[C@@H](CCCNC(=N)N)NC(=O)[C@@H](N)CCCNC(=N)N)[C@@H](C)O)[C@@H](C)O)C(C)C)[C@@H](C)O)[C@@H](C)O)C(=O)O [R-{D-Arg}-RK- 1C11] (H-R[dR]RKALLTSGTSDPRARVTYGTPSLWARL-OH; N-terminus and C-terminus assumed) |
| 28.9 ± 5.2 | 19.6 | CC[C@H](C)[C@H](NC(=O)[C@@H]1CCCN1C(=O)[C@H](CO)NC(=O)[C@H](CO)NC(=O)[C@@H](NC(=O)[C@H](CO)NC(=O)[C@H](CC(C)C)NC(=O)[C@H](C)NC(=O)[C@H](CCCCN)NC(=O)[C@H](CCCNC(=N)N)NC(=O)[C@@H](CCCNC(=N)N)NC(=O)[C@@H](N)CCCNC(=N)N)[C@@H](C)O)C(=O)N1CCC[C@H]1C(=O)N[C@@H](CO)C(=O)N[C@H](C(=O)N1CCC[C@H]1C(=O)N[C@@H](CCC(N)=O)C(=O)N[C@@H](CO)C(=O)N[C@@H](CCC(N)=O)C(=O)N[C@@H](C)C(=O)N[C@@H](CCC(N)=O)C(=O)N1CCC[C@H]1C(=O)N[C@@H](CCC(N)=O)C(=O)N[C@H](C(=O)NCC(=O)N[C@@H](CO)C(=O)NCC(=O)N[C@@H](C)C(=O)N[C@@H](CO)C(=O)O)[C@@H](C)O)C(C)C [R-{D-Arg}-RK- 2F3] (H-R[dR]RKALSTSSPIPSVPQSQAQPQTGSGAS-OH; N-terminus and C-terminus assumed) |

— article PMC8564633, “SMAC/Diablo controls proliferation of cancer cells by regulating phosphatidylethanolamine synthesis” (Molecular Oncology, 2021)
